Test system: CT26 mouse colon carcinoma cell strain
Assay: In vivo anti-tumor activity in mouse CT26 colon tumor model
Protocol: The experimental purposes was to investigate the in vivo anti-tumor effect of the combination of the test compound with a mouse anti-PD-1 antibody against the mouse colon cancer in CT26 tumor model.
Female Balb/c mice were subcutaneously inoculated with CT26 mouse colon carcinoma cell strain, and randomly grouped based on their body weight, after inoculation. And, they were administered as follows.
To the first group (a control group), the administration was started in the afternoon of the day of vaccination in a way that vehicle 1 (10% DMSO+10% Solutol+80% DDH2O) was administered intragastrically twice a day at a dosage of 0.1 mL/10 g body weight each time, and when the tumor had grown to a volume of about 60 mm^3 after the inoculation, it started to do administration in a way that vehicle 2 (DPBS) was given twice a week through intraperitoneal injection at a dosage of 0.1 mL/10 g body weight at each time.
To the second group, when the tumor had grown to a volume of about 60 mm^3 after the inoculation, it started to do administration in a way that anti-mouse PD-1 antibody (RMP1-14, supplied by BioXcell) was given through intraperitoneal injection twice a week at a dosage of 3 mg/kg body weight at each time. […]
During the experiment, the mice were weighed three times a week, and after the tumor formed, the tumor volume was measured three times a week at each time when the body weight was measured, and calculated following the equation: length×width^2/2. Tumor proliferation rate was calculated following the equation: Tumor proliferation rate=Tumor volume in the treatment group/Tumor volume in the control group×100%.
The differences between groups were statistically analyzed by Student's t-test, and p<0.05 was considered to be a significant difference.

COc1cc2nccc(Oc3ccc(NC(=O)NC4CC4)c(Cl)c3F)c2cc1C(N)=O [Example 1]
Tumor proliferation rate (day 25, Example 1 10 mg/kg intragastrically once a day in combination with anti-mouse PD-1 antibody RMP1-14 3 mg/kg i.p. twice a week, female Balb/c mice, p<0.01): 15.38%
Anti-tumor activity in combination with PD-1 antibody (in words) (mouse CT26 tumor model, combination with PD-1 antibody): significant anti-tumor activity
Effect on anti-tumor effect of PD-1 antibody (in words) (tumor volumes on day 25, combination group vs single antibody group, p<0.05): significantly enhanced anti-tumor effect on PD-1 antibody

Source: patent publication US20220175756A1, “APPLICATION OF COMBINATION OF QUINOLINE DERIVATIVE AND IMMUNOMODULATOR IN PREPARATION OF ANTITUMOR DRUGS” (CHONGQING PHARMACEUTICAL INDUSTRIAL RESEARCH INSTITUTE CO., …, priority 2019, published 2022)
